In ChEMBL document CHEMBL5030558, “Optimization and Evaluation of Novel Antifungal Agents for the Treatment of Fungal Infection” (J Med Chem, 2021):
≈ marks a conversion by molar mass, not a printed value.

Key:
[1] = tested on: Cryptococcus neoformans; assay: Antifungal activity against Cryptococcus neoformans H99 assessed as reduction in fungal growth incubated for 72 hrs by CLSI based broth microdilution method; format: functional
[2] = tested on: Nakaseomyces glabratus; assay: Antifungal activity against Candida glabrata BG2 assessed as reduction in fungal growth incubated for 48 hrs by CLSI based broth microdilution method; format: functional
[3] = tested on: Candida albicans; assay: Antifungal activity against Candida albicans ATCC SC5314 assessed as reduction in fungal growth incubated for 48 hrs by CLSI based broth microdilution method; format: functional
[4] = tested on: Aspergillus fumigatus; assay: Antifungal activity against Aspergillus fumigatus AF293 assessed as reduction in fungal growth incubated for 48 hrs by CLSI based broth microdilution method; format: functional
[5] = Stability in human liver microsomes assessed as parent compound remaining after 30 mins; format: ADME, Microsome; conditions: read-out: Stability

Structure (SMILES) | MIC [1] [µg/mL] | MIC [2] [µg/mL] | MIC [3] [µg/mL] | MIC [4] [µg/mL] | remaining at 0.5 h [5] [%]
CC(C)(NCCc1ccc(OCc2cccc(F)c2)cc1)C(N)=O.CS(=O)(=O)O | 128 | > 128 | > 128 | > 128 | 
Nc1ncccc1C(=O)NCCc1ccc(-c2ccc(Cl)c(Cl)c2)cc1 | 128 (≈ 331 µM) | 128 (≈ 331 µM) | 128 (≈ 331 µM) | 128 (≈ 331 µM) | 
CC(C)(NCCc1ccc(OCc2cccc(C(F)(F)F)c2)cc1)C(N)=O.CS(=O)(=O)O | 64 | 128 | 128 | 128 | 
O=C(NCCc1ccc(-c2ccc(Cl)c(Cl)c2)cc1)c1cccnc1 | 128 (≈ 345 µM) | 128 (≈ 345 µM) | 128 (≈ 345 µM) | 128 (≈ 345 µM) | 
CC(C)(NCCc1ccc(OCc2ccc(C(F)(F)F)cc2)cc1)C(N)=O.CS(=O)(=O)O | 64 | 128 | 128 | 128 | 
CC(NCCc1ccc(OCc2ccccc2F)cc1)C(N)=O.CS(=O)(=O)O (centres undefined) | 128 | > 128 | > 128 | > 128 | 
CCC(N)C(=O)NCCc1ccc(-c2ccc(F)c(F)c2)cc1.Cl (racemic) | 64 | 64 | 32 | 64 | 
CC(NCCc1ccc(OCc2ccc(F)cc2)cc1)C(N)=O.CS(=O)(=O)O (racemic) | 128 | > 128 | > 128 | > 128 | 
CC(NCCc1ccc(OCc2ccc(Cl)cc2)cc1)C(N)=O.CS(=O)(=O)O (racemic) | 64 | > 128 | > 128 | > 128 | 
CC(NCCc1ccc(OCc2ccc(C(F)(F)F)cc2)cc1)C(N)=O.CS(=O)(=O)O (racemic) | 32 | 128 | 128 | 64 | 
CC(NCCc1ccc(OCc2cccc(Cl)c2)cc1)C(N)=O.CS(=O)(=O)O (racemic) | 32 | > 128 | 128 | 128 | 
CC(NCCc1ccc(-c2ccc(C(F)(F)F)cc2)cc1)C(N)=O.CS(=O)(=O)O (racemic) | 32 | 64 | 128 | 32 | 
Cl.O=C(NCCc1ccc(-c2ccc(C(F)(F)F)cc2)cc1)C1CCNC1 (racemic) | 64 | 64 | 32 | 64 | 
CC(NCCc1ccc(OCc2ccccc2C(F)(F)F)cc1)C(N)=O.CS(=O)(=O)O (racemic) | 64 | > 128 | > 128 | 64 | 
CCCC(N)C(=O)NCCc1ccc(-c2ccc(F)c(F)c2)cc1.Cl (racemic) | 32 | 64 | 16 | 64 | > 85
CC(NCCc1ccc(-c2cccc(OC(F)(F)F)c2)cc1)C(N)=O.CS(=O)(=O)O (racemic) | 32 | 64 | > 128 | 16 | 
CC(NCCc1ccc(Oc2ccc(C(F)(F)F)cc2)cc1)C(N)=O.CS(=O)(=O)O (racemic) | 32 | 128 | 128 | 64 | 
CC(NCCc1ccc(OCc2ccccc2Cl)cc1)C(N)=O.CS(=O)(=O)O (racemic) | 32 | > 128 | > 128 | 128 | 
CC(=O)N1CCC(C(=O)NCCc2ccc(-c3ccc(C(F)(F)F)cc3)cc2)C1 (racemic) | > 128 | > 128 | > 128 | > 128 | 
COc1cccc(COc2ccc(CCNC(C)C(N)=O)cc2)c1.CS(=O)(=O)O (racemic) | 128 | > 128 | 128 | > 128 | 
CC(NCCc1ccc(-c2ccc(OC(F)(F)F)cc2)cc1)C(N)=O.CS(=O)(=O)O (racemic) | 16 | > 128 | 36 | > 128 | 
CC(=O)N1CCCC1C(=O)NCCc1ccc(-c2ccc(C(F)(F)F)cc2)cc1 (racemic) | > 128 | > 128 | > 128 | > 128 | 
CC(NCCc1ccc(OCc2cccc(F)c2)cc1)C(N)=O.CS(=O)(=O)O (racemic) | 64 | > 128 | > 128 | > 128 | 
CC(NCCc1ccc(OCc2cccc(C(F)(F)F)c2)cc1)C(N)=O.CS(=O)(=O)O (racemic) | 32 | 128 | 128 | 64 | 

More lines, now with the values ahead:

MIC [1] [µg/mL] | MIC [2] [µg/mL] | MIC [3] [µg/mL] | MIC [4] [µg/mL] | remaining at 0.5 h [5] [%] | Structure (SMILES)
8 | 16 | 16 | 16 |  | Cl.O=C(NCCc1ccc(-c2ccc(Cl)c(Cl)c2)cc1)C1CCCN1 (centres undefined)
16 | 64 | 32 | 64 |  | CCC(NC)C(=O)NCCc1ccc(-c2ccc(C(F)(F)F)cc2)cc1.Cl (racemic)
16 | 16 | 16 | 32 |  | CCC(N)C(=O)NCCc1ccc(-c2ccc(OC(F)(F)F)cc2)cc1.Cl (racemic)
4 | 16 | 16 | 8 |  | CCCCC(NC)C(=O)NCCc1ccc(-c2ccc(OC(F)(F)F)cc2)cc1.Cl (racemic)
8 | 32 | 32 | 32 |  | CC(NCCc1ccc(Oc2ccc(Cl)c(Cl)c2)cc1)C(N)=O.CS(=O)(=O)O (racemic)
4 | 8 | 8 | 8 |  | CCCCC(N)C(=O)NCCc1ccc(-c2ccc(OC(F)(F)F)cc2)cc1.Cl (racemic)
8 | 16 | 16 | 8 |  | CC(NCCc1ccc(-c2ccc(Cl)c(Cl)c2)cc1)C(N)=O.CS(=O)(=O)O (racemic)
8 | 16 | 16 | 16 |  | CCCC(N)C(=O)NCCc1ccc(Oc2ccc(Cl)c(Cl)c2)cc1.Cl (racemic)
16 | 16 | 16 | 32 |  | CCC(N)C(=O)NCCc1ccc(-c2ccc(C(F)(F)F)cc2)cc1.Cl (racemic)
16 | 32 | 32 | 32 |  | CCCC(N)C(=O)NCCc1ccc(Oc2ccc(C(F)(F)F)cc2)cc1.Cl (racemic)
8 | 32 | 32 | 32 |  | CC(NCCc1ccc(OCc2ccc(Cl)cc2Cl)cc1)C(N)=O.CS(=O)(=O)O (racemic)
16 | 32 | 16 | 32 |  | CCCCC(N)C(=O)NCCc1ccc(-c2ccc(F)c(F)c2)cc1.Cl (racemic)
4 | 16 | 16 | 16 |  | CCCCC(NC)C(=O)NCCc1ccc(-c2ccc(C(F)(F)F)cc2)cc1.Cl (racemic)
16 | 32 | 32 | 32 |  | CCC(NC)C(=O)NCCc1ccc(-c2ccc(OC(F)(F)F)cc2)cc1.Cl (racemic)
8 (≈ 20.4 µM) | 16 (≈ 40.9 µM) | 128 (≈ 327 µM) | 16 (≈ 40.9 µM) |  | CN1CCCCC1C(=O)NCCc1ccc(-c2ccc(Cl)c(Cl)c2)cc1 (racemic)
16 | 64 | 64 | 64 |  | CCCC(NC)C(=O)NCCc1ccc(OCc2ccc(C(F)(F)F)cc2)cc1.Cl (racemic)
8 | 128 | 32 | 16 |  | CCCC(NC)C(=O)NCCc1ccc(-c2ccc(OC(F)(F)F)cc2)cc1.Cl (racemic)
8 (≈ 21.2 µM) | 16 (≈ 42.4 µM) | 128 (≈ 339 µM) | 16 (≈ 42.4 µM) |  | CN1CCCC1C(=O)NCCc1ccc(-c2ccc(Cl)c(Cl)c2)cc1 (racemic)
4 | 8 | 8 | 8 |  | CCCCC(N)C(=O)NCCc1ccc(-c2ccc(C(F)(F)F)cc2)cc1.Cl (racemic)
8 | 16 | 16 | 16 |  | CCC(NC)C(=O)NCCc1ccc(-c2ccc(Cl)c(Cl)c2)cc1.Cl (racemic)
8 | 16 | 8 | 16 |  | CCCC(N)C(=O)NCCc1ccc(OCc2ccc(Cl)c(Cl)c2)cc1.Cl (racemic)
8 | 16 | 8 | 16 |  | CCC(N)C(=O)NCCc1ccc(-c2ccc(Cl)c(Cl)c2)cc1.Cl (racemic)
16 | 32 | 32 | 32 |  | Cl.O=C(NCCc1ccc(-c2ccc(C(F)(F)F)cc2)cc1)C1CCCN1 (racemic)
8 | 32 | 32 | 32 |  | CC(NCCc1ccc(OCc2ccc(Cl)c(Cl)c2)cc1)C(N)=O.CS(=O)(=O)O (racemic)
8 | 32 | 32 | 32 |  | CCCC(NC)C(=O)NCCc1ccc(OCc2ccc(Cl)c(Cl)c2)cc1.Cl (racemic)
8 | 16 | 16 | 16 |  | Cl.O=C(NCCc1ccc(-c2ccc(Cl)c(Cl)c2)cc1)C1CCCCN1 (racemic)
8 | 16 | 8 | 16 |  | CCCC(N)C(=O)NCCc1ccc(-c2ccc(C(F)(F)F)cc2)cc1.Cl (racemic)
4 | 16 | 8 | 16 |  | CCCC(N)C(=O)NCCc1ccc(-c2ccc(OC(F)(F)F)cc2)cc1.Cl (racemic)
